Measured values published in patent US9044397B2, “Medical devices with galvanic particulates” (Ethicon, Inc., priority 2009, dated 2015).

How the values were obtained:
Assay type in all cases: cell-based
C. albicans [1] = experiment: Zone of inhibition on TSA agar versus copper acetate and zinc acetate; settings: about 6 log CFU, 37° C. 24 hr
Method: (§1) Zone of inhibition testing was performed on agar discs containing copper-zinc galvanic particulates from Example 1(a) at 0.5%, Zn acetate at 0.5%, and Cu acetate at 0.1%. The discs were placed on TSA agar surface, inoculated with about 6 log CFU of MRSA or C. albicans, and incubated at 37° C. for 24 hr.

MRSA [2] = experiment: as above; settings: about 6 log CFU, 37° C. 24 hr
Method: as §1

C. albicans [3] = experiment: Sustained efficacy, zone of inhibition day 1 and re-plated day 2; settings: 1% in agar disc
Method: (§2) Agars discs containing either galvanic particulates as described in Example 1(a) or zinc acetate at 1% were placed on TSA agar surface inoculated with about 6 log CFU of MRSA or C. albicans and incubated at 37° C. for 24 hr (day-1).

MRSA [4] = experiment: as above; settings: 1% in agar disc
Method: as §2

[5] = same disc moved to newly inoculated plate, day-2

Compound	zone of inhibition, C. albicans (C. albicans [1]; 0.5% in agar disc)	zone of inhibition, MRSA (MRSA [2]; 0.5% in agar disc)	zone of inhibition, C. albicans, day 1 (C. albicans [3]; day-1, 24 hr at 37° C.)	zone of inhibition, C. albicans, day 2 (C. albicans [3]; [5])	zone of inhibition, MRSA, day 1 (MRSA [4]; day-1, 24 hr at 37° C.)	zone of inhibition, MRSA, day 2 (MRSA [4]; [5])	zone of inhibition, C. albicans (C. albicans [1]; 0.1% in agar disc)	zone of inhibition, MRSA (MRSA [2]; 0.1% in agar disc)
CC(=O)[O-].CC(=O)[O-].[Zn+2] [Zinc Acetate, zinc acetate]	smaller zone of inhibition, approximately one half the radius	smaller zone of inhibition, approximately one half the radius	produce a zone of inhibition	did not show any inhibition	produce a zone of inhibition	did not show any inhibition	–	–
copper acetate	–	–	–	–	–	–	did not show any visible zone of inhibition	did not show any visible zone of inhibition
